According to US20240270821A1, “GIP/GLP1/GCG TRI-RECEPTOR AGONISTS AND USES THEREOF” (priority 2023, published 2024):
Like-named read-outs stand apart in the source and are kept apart here. Starred links: 1 amine or outer side, 2 acyl side, 3 side chain; linkers in the order of their positions; H or OH if unused. Non-standard residues stand in square brackets, D forms with d. Groups on a side chain read outwards from the residue. *: point of attachment. C18 diacid = O=C(O)CCCCCCCCCCCCCCCCC(=O)*; αMePhe(2-F) = C[C@](N)(Cc1ccccc1F)C(=O)O; γGlu = O=C(O)[C@H](CCC(=O)[*:2])N[*:1]; αMe4Pal = C[C@](N)(Cc1ccncc1)C(=O)O; αMeY = C[C@](N)(Cc1ccc(O)cc1)C(=O)O; 4Pal = N[C@@H](Cc1ccncc1)C(=O)O; αMeL = CC(C)C[C@](C)(N)C(=O)O; αMeS = C[C@](N)(CO)C(=O)O; Orn = NCCC[C@H](N)C(=O)O; AEEA = NCCOCCOCC(=O)O; Aib = CC(C)(N)C(=O)O

Experiments:
Type in all cases: cell-based
hGcgR = hGcgR (Homo sapiens, UniProt P47871); test: Functional cAMP activation in the presence of 0.1% casein (no HSA); conditions: read-out: Relative cAMP EC50, hGcgR;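 also: intracellular cAMP rise after 30 min at 37 °C, read by HTRF against a cAMP standard curve, scaled from buffer only (0%) to maximal control ligand response (100%)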
hGLP-1R [1] = molecular target: T1, hGLP-1R (Homo sapiens, UniProt P43220); test: Functional cAMP activity in the presence of 1% HSA; conditions: read-out: cAMP Rel EC50, hGLP-1R
hGLP-1R [2] = molecular target: T1, hGLP-1R; test: Functional cAMP activation in the presence of 0.1% casein (no HSA); conditions: read-out: Relative cAMP EC50, hGLP-1R;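 as to Relative cAMP EC50, hGIPR: intracellular cAMP rise after 30 min at 37 °C read by HTRF against a standard curve, scaled between buffer alone (0%) and top control ligand concentration (100%), four-parameter fit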;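 as to Relative cAMP EC50, hGLP-1R: intracellular cAMP rise after 30 min at 37 °C read by HTRF, normalized between buffer only (0%) and maximal control ligand (100%), four-parameter variable-slope fit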
human GcgR = human GcgR (Homo sapiens, UniProt P47871); test: Functional cAMP activity in the presence of 1% HSA; conditions: read-out: cAMP Rel EC50, hGcgR
hGIPR [3] = molecular target: T2, hGIPR (Homo sapiens, UniProt P48546); test: Functional cAMP activity in the presence of 1% HSA; conditions: read-out: cAMP Rel EC50, hGIPR
T2 sequence (P48546 22-466): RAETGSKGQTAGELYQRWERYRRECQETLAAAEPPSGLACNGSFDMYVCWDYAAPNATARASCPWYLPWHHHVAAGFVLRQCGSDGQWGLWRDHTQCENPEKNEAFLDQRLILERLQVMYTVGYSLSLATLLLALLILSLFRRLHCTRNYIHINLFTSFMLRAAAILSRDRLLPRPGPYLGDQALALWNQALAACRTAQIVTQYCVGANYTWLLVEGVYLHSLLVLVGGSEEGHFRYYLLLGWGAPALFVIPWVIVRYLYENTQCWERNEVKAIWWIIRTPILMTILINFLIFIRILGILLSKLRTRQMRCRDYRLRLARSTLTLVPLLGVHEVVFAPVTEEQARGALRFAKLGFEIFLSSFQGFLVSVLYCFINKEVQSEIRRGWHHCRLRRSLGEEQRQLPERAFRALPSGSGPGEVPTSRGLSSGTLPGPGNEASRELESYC

hGIPR [4] = molecular target: T2, hGIPR; test: Functional cAMP activation in the presence of 0.1% casein (no HSA); conditions: read-out: Relative cAMP EC50, hGIPR;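 as to Relative cAMP EC50, hGIPR: intracellular cAMP rise after 30 min at 37 °C read by HTRF against a standard curve, scaled between buffer alone (0%) and top control ligand concentration (100%), four-parameter fit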;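 as to Relative cAMP EC50, hGLP-1R: intracellular cAMP rise after 30 min at 37 °C read by HTRF, normalized between buffer only (0%) and maximal control ligand (100%), four-parameter variable-slope fit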
[5] = 0.1% casein, no HSA, geometric mean
[6] = in the presence of 0.1% casein (no HSA), geometric mean of relative EC50
[7] = HEK-293 clonal cell line, 1% HSA, geometric mean of relative EC50

Sequence of hGcgR (P47871 26-477): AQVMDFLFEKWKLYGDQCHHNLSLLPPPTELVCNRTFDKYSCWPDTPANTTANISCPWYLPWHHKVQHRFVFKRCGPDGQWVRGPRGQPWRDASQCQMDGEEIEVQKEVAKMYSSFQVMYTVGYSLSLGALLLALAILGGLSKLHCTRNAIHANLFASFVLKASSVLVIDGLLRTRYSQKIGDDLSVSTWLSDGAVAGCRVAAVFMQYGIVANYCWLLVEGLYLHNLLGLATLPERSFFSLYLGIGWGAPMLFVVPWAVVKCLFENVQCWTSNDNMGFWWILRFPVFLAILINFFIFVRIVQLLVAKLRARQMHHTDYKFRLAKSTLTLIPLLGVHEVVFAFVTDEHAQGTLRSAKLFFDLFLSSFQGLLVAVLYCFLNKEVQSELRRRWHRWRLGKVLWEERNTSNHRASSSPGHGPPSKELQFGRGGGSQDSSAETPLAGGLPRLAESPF
Sequence of human GcgR (P47871 26-477): as above
T1 sequence (P43220 24-463): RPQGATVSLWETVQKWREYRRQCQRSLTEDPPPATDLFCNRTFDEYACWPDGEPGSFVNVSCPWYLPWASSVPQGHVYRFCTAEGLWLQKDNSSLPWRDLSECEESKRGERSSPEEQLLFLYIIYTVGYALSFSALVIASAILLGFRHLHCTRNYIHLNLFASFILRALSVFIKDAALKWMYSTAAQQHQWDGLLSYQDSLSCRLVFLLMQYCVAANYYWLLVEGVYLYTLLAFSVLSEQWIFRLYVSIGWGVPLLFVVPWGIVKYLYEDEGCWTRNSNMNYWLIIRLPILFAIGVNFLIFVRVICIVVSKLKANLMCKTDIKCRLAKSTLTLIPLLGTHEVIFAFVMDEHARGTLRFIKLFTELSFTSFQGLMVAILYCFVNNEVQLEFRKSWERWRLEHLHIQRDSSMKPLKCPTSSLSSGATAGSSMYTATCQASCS

Substance	EC50 (hGcgR)	EC50 (hGLP-1R [1])	EC50 (hGLP-1R [2])	EC50 (human GcgR)	EC50 (hGIPR [3])	EC50 (hGIPR [4])	EC50 (hGcgR; [5])	EC50 (hGLP-1R [2]; [5])	EC50 (hGIPR [4]; [5])	EC50 (hGcgR; [6])	EC50 (hGLP-1R [1]; [7])	EC50 (hGLP-1R [2]; [6])	EC50 (human GcgR; [7])	EC50 (hGIPR [3]; [7])	EC50 (hGIPR [4]; [6])
H-Y[Aib]QGT[αMePhe(2-F)]TSD[4Pal][αMeS]I[αMeL]LD[Orn]K([AEEA-AEEA-γGlu-C18 diacid])AQ[Aib][Orn]FIEYLIEGGPSSGAPEPSEG-NH2 [Example 492]	1.35 nM	9.85 nM	0.146 nM	128 nM	0.84 nM	0.0119 nM									
H-Y[Aib]QGT[αMePhe(2-F)]TSD[4Pal][αMeS]I[αMeL]LD[Orn]K([AEEA-AEEA-γGlu-C18 diacid])AQ[Aib][Orn]FIEYLIEGGPSSGEPPPSEG-NH2 [Example 491]	1.58 nM	9.55 nM	0.17 nM	159 nM	0.688 nM	0.0126 nM									
H-Y[Aib]QGT[αMePhe(2-F)]TSD[4Pal][αMeS]I[αMeL]LD[Orn]K([AEEA-AEEA-γGlu-C18 diacid])AQ[αMe4Pal]EFI[dE][αMeY]LIEGGPSSGEPPPSGS-NH2 [Example 1208]		44.8 nM		451 nM	0.786 nM		3.52 nM	0.526 nM	0.00907 nM						
H-Y[Aib]QGT[αMePhe(2-F)]TSD[4Pal][αMeS]I[αMeL]LD[Orn]K([AEEA-γGlu-C18 diacid])AA[Aib]EFI[dE][αMeY]LIEGGPSSGAPPPSGEE-NH2 [Example 703]										1.56 nM	27.1 nM	0.233 nM	201 nM	0.961 nM	0.0101 nM
H-Y[Aib]QGT[αMePhe(2-F)]TSD[4Pal][αMeS]I[αMeL]LD[Orn]K([AEEA-γGlu-C18 diacid])AA[Aib]EFI[dE][αMeY]LIEGGPSSGAPPPSGQ-OH [Example 722]	1.71 nM	27.2 nM	0.252 nM	170 nM	0.953 nM	0.01 nM									
H-Y[Aib]QGT[αMePhe(2-F)]TSD[4Pal][αMeS]I[αMeL]LD[Orn]K([AEEA-γGlu-C18 diacid])AA[Aib]EFI[dE][αMeY]LIEGGPSSGAPPPSGTEE-NH2 [Example 725]	1.49 nM	29.1 nM	0.258 nM	244 nM	1.39 nM	0.0126 nM									
H-Y[Aib]QGT[αMePhe(2-F)]TSD[4Pal][αMeS]I[αMeL]LD[Orn]K([AEEA-γGlu-C18 diacid])AA[Aib]EFI[dE][αMeY]LIEGGPSSGAPPPSGTEQ-OH [Example 726]	1.71 nM	33.3 nM	0.247 nM	226 nM	1.22 nM	0.013 nM									
H-Y[Aib]QGT[αMePhe(2-F)]TSD[4Pal][αMeS]I[αMeL]LD[Orn]K([AEEA-γGlu-C18 diacid])AA[Aib]EFI[dE][αMeY]LIEGGPSSGAPPPSGTGQ-OH [Example 724]	1.74 nM	26.4 nM	0.256 nM	209 nM	1.06 nM	0.0102 nM									
H-Y[Aib]QGT[αMePhe(2-F)]TSD[4Pal][αMeS]I[αMeL]LD[Orn]K([AEEA-γGlu-C18 diacid])AA[Aib]EFI[dE][αMeY]LIEGGPSSGAPPPSG[dE]-NH2 [Example 721]	1.78 nM	27.1 nM	0.233 nM	183 nM	1.19 nM	0.00774 nM									
H-Y[Aib]QGT[αMePhe(2-F)]TSD[4Pal][αMeS]I[αMeL]LD[Orn]K([AEEA-γGlu-C18 diacid])AA[Aib]EFI[dE][αMeY]LIEGGPSSGEPPPSGGGE-NH2 [Example 746]	1.62 nM	38.6 nM	0.261 nM	255 nM	1.44 nM	0.0119 nM									
H-Y[Aib]QGT[αMePhe(2-F)]TSD[4Pal][αMeS]I[αMeL]LD[Orn]K([AEEA-γGlu-C18 diacid])AA[Aib]EFI[dE][αMeY]LLEGGPSSGAPPPSGS-NH2 [Example 672]	1.19 nM	49.4 nM	0.389 nM	162 nM	1.53 nM	0.014 nM									
H-Y[Aib]QGT[αMePhe(2-F)]TSD[4Pal][αMeS]I[αMeL]LD[Orn]K([AEEA-γGlu-C18 diacid])AA[Aib]EFI[dE][αMeY]LVEGGPSSGAPPPSGS-NH2 [Example 693]	2.39 nM	18 nM	0.161 nM	304 nM	1.1 nM	0.0104 nM									

The next lines start with results.

EC50 (hGcgR)	EC50 (hGLP-1R [1])	EC50 (hGLP-1R [2])	EC50 (human GcgR)	EC50 (hGIPR [3])	EC50 (hGIPR [4])	EC50 (hGcgR; [5])	EC50 (hGLP-1R [2]; [5])	EC50 (hGIPR [4]; [5])	Substance	EC50 (hGcgR; [6])	EC50 (hGLP-1R [1]; [7])	EC50 (hGLP-1R [2]; [6])	EC50 (human GcgR; [7])	EC50 (hGIPR [3]; [7])	EC50 (hGIPR [4]; [6])
1.41 nM	14.9 nM	0.177 nM	325 nM	1.58 nM	0.0139 nM				H-Y[Aib]QGT[αMePhe(2-F)]TSD[4Pal][αMeS]I[αMeL]LD[Orn]K([AEEA-γGlu-C18 diacid])AQ[Aib]NFIEYLIEGGPSSGEPPPEEG-NH2 [Example 482]						
1.77 nM	18.2 nM	0.188 nM	231 nM	1.17 nM	0.0133 nM				H-Y[Aib]QGT[αMePhe(2-F)]TSD[4Pal][αMeS]I[αMeL]LD[Orn]K([AEEA-γGlu-C18 diacid])AQ[Aib]NFIEYLIEGGPSSGEPPPEGE-NH2 [Example 483]						
3.99 nM	16 nM	0.201 nM	204 nM	1.59 nM	0.0152 nM				H-Y[Aib]QGT[αMePhe(2-F)]TSD[4Pal][αMeS]I[αMeL]LD[Orn]K([AEEA-γGlu-C18 diacid])AQ[Aib][Orn]FIEYLIEAGPSSGEPPPEEG-NH2 [Example 484]						
1.34 nM	14.6 nM	0.164 nM	90.2 nM	1.29 nM	0.0131 nM				H-Y[Aib]QGT[αMePhe(2-F)]TSD[4Pal][αMeS]I[αMeL]LD[Orn]K([AEEA-γGlu-C18 diacid])AQ[Aib][Orn]FIEYLIEGGPSSGEPPPEEG-NH2 [Example 476]						
4.54 nM	38 nM	0.401 nM	455 nM	2.32 nM	0.0373 nM				H-Y[Aib]QGT[αMePhe(2-F)]TSD[4Pal][αMeS]I[αMeL]LD[Orn]K([AEEA-γGlu-C18 diacid])AQ[Aib][Orn]FI[dE]YLIEGGPSSGEPPPSGTE-NH2 [Example 501]						
5.02 nM	30 nM	0.334 nM	453 nM	3.23 nM	0.0388 nM				H-Y[Aib]QGT[αMePhe(2-F)]TSD[4Pal][αMeS]I[αMeL]LD[Orn]K([AEEA-γGlu-C18 diacid])AQ[Aib][Orn]FI[dE]YLIEGGPSSGEPPPSGTEE-NH2 [Example 533]						
1.22 nM	14.2 nM	0.204 nM	100 nM	1.19 nM	0.0164 nM				H-Y[Aib]QGT[αMePhe(2-F)]TSD[4Pal][αMeS]I[αMeL]LD[Orn]K([AEEA-γGlu-C18 diacid])AQ[Aib][Orn]FI[dE][αMeY]LIEGGPSSGEPEPSEG-NH2 [Example 481]						
1.53 nM	20.6 nM	0.252 nM	124 nM	0.824 nM	0.0112 nM				H-Y[Aib]QGT[αMePhe(2-F)]TSD[4Pal][αMeS]I[αMeL]LD[Orn]K([AEEA-γGlu-C18 diacid])AQ[Aib][Orn]FI[dE][αMeY]LIEGGPSSGEPPPEGE-NH2 [Example 698]						
1.71 nM	18.2 nM	0.235 nM	130 nM	0.607 nM	0.0109 nM				H-Y[Aib]QGT[αMePhe(2-F)]TSD[4Pal][αMeS]I[αMeL]LD[Orn]K([AEEA-γGlu-C18 diacid])AQ[Aib][Orn]FI[dE][αMeY]LIEGGPSSGEPPPEGTGE-NH2 [Example 697]						
	82.3 nM		243 nM	0.931 nM		3.06 nM	0.945 nM	0.00992 nM	H-Y[Aib]QGT[αMePhe(2-F)]TSD[4Pal][αMeS]I[αMeL]LD[Orn]K([AEEA-γGlu-C18 diacid])AQ[αMe4Pal]EFI[dE][αMeY]LIEGGPPSGEPPPEGE-NH2 [Example 1191]						
	93.9 nM		234 nM	1.02 nM		1.76 nM	0.888 nM	0.00959 nM	H-Y[Aib]QGT[αMePhe(2-F)]TSD[4Pal][αMeS]I[αMeL]LD[Orn]K([AEEA-γGlu-C18 diacid])AQ[αMe4Pal]EFI[dE][αMeY]LIEGGPPS[Aib]EPPPSGGGE-NH2 [Example 1201]						
